Test results taken from publication PMC6792352, “Limited Chemical Structural Diversity Found to Modulate Thyroid Hormone Receptor in the Tox21 Chemical Library” (Environmental Health Perspectives, 2019).
Structures can show the parent of a compound that is named as a salt. Non-standard residues stand in square brackets, D forms with d. Residues, ends and D or L forms follow the SMILES beside them. pGlu = O=C1CC[C@@H](C(=O)O)N1; Thz = O=C(O)[C@@H]1CSCN1

Assay: in vitro
Conditions: rat, gh3-tre-luc cells, AC50 (uM) modified / 1000

SMILES	CC50 at 24 h
CO/N=C(\C(=O)N[C@@H]1C(=O)N2C(C(=O)O)=C(Cn3ccc(=N)n3CCO)CS[C@H]12)c1csc(N)n1 [Cefoselis sulfate]	> 50 µM
S=C=Nc1ccccc1 [Phenyl isothiocyanate]	> 90 µM
OC(c1ccc(Cl)cc1)(c1ccc(Cl)cc1)c1cccnc1 [Parinol]	64.3 µM
C=CC(=C)C [Isoprene]	> 90 µM
C[C@]12CC[C@@H]3c4ccc(OS(=O)(=O)O)cc4CC[C@H]3[C@@H]1CCC2=O [Estropipate]	> 50 µM
CC1(C)[C@H]2CC[C@]1(C)C(=O)C2 [Camphor]	> 90 µM
N[C@@H](CSCCCO)C(=O)O [Fudosteine]	> 50 µM
CCCCCC#CC(=O)OC [Methyl 2-octynoate]	> 90 µM
CCC(=O)O[C@]1(C(=O)CCl)[C@@H](C)C[C@H]2[C@@H]3C[C@H](F)C4=CC(=O)C=C[C@]4(C)[C@@]3(F)[C@@H](O)C[C@@]21C [Halobetasol propionate]	> 50 µM
CN(C)[C@@H]1C(O)=C(C(N)=O)C(=O)[C@@]2(O)C(O)=C3C(=O)c4c(O)cccc4[C@@](C)(O)[C@H]3C[C@@H]12 [Tetracycline]	> 90 µM
O=C(O)[C@H]1CN(C/C=C/P(=O)(O)O)CCN1 [Midafotel]	> 50 µM
O=C(N[C@H](CO)[C@H](O)c1ccc([N+](=O)[O-])cc1)C(Cl)Cl [Chloramphenicol]	> 90 µM
Cc1nc2n(c(=O)c1CCN1CCC(c3noc4cc(F)ccc34)CC1)CCCC2O (stereo not shown) [Paliperidone]	> 50 µM
Cc1ccc2oc(=O)ccc2c1 [6-Methyl coumarin]	> 90 µM
CC1(C)[C@@H]2CC[C@@]1(C)[C@H](O)C2 [Isoborneol]	> 90 µM
Nc1ccccc1S(=O)(=O)c1ccccc1 [2-(Phenylsulfonyl)aniline]	> 90 µM
C[C@H]1[C@H](O)O[C@@H]2O[C@@]3(C)CC[C@H]4[C@H](C)CC[C@@H]1[C@@]24OO3 [Artenimol]	1.39 µM
Cc1ccc2c(c1)CCCN2 [6-Methyl-1,2,3,4-tetrahydroquinoline]	> 90 µM
CC1(C)CCC(NC(=O)[C@@H](N)CCC(=O)O)CC1 [Neboglamine]	> 50 µM
CNC(=O)OCc1cccc(COC(=O)NC)n1 [Pyricarbate]	> 50 µM
O=C(O)CCc1nc2ccccc2[nH]1 [Procodazole]	> 50 µM
CC(CC(c1ccccc1)c1ccccc1)NC(C)(C)C (stereo not shown) [Terodiline hydrochloride]	11 µM

SMILES	CC50 at 24 h
CN1CCC(OC(c2ccccc2)c2ccccc2)CC1 [Diphenylpyraline hydrochloride]	> 20 µM
S=C(NC1CCCCC1)NC1CCCCC1 [N,N'-Dicyclohexylthiourea]	> 90 µM
CCCNC(C)(C)COC(=O)c1ccccc1 [Meprylcaine hydrochloride]	> 50 µM
Nc1ccccc1S(=O)(=O)O [Orthanilic acid]	> 90 µM
C1CCc2nnnn2CC1 [Pentylenetetrazol]	> 50 µM
CC(=O)OCC(=O)[C@H]1CC[C@H]2[C@@H]3CCC4=CC(=O)CC[C@]4(C)[C@H]3CC[C@]12C [Deoxycorticosterone acetate]	> 50 µM
O[C@@H](c1cc(C(F)(F)F)nc2c(C(F)(F)F)cccc12)[C@H]1CCCCN1 [Mefloquine hydrochloride]	5.17 µM
O=C(Cn1ccnc1[N+](=O)[O-])NCc1ccccc1 [Benznidazole]	> 50 µM
c1cc(CN2CCCCC2)cc(OCCCNc2nc3ccccc3s2)c1 [Zolantidine dimaleate]	8.26 µM
CC1COC(=O)O1 (stereo not shown) [Propylene carbonate]	> 90 µM
CCOC(=O)[C@H](CCc1ccccc1)N[C@@H](C)C(=O)N1CCC[C@H]1C(=O)O [Enalapril]	> 50 µM
O=c1n(CCO)c(=O)n(CCO)c(=O)n1CCO [Tris(2-hydroxyethyl) isocyanurate]	> 90 µM
CCNC(=O)[C@@H]1CCCN1C(=O)[C@H](CCCNC(=N)N)NC(=O)[C@H](CC(C)C)NC(=O)[C@@H](CC(C)C)NC(=O)[C@H](Cc1ccc(O)cc1)NC(=O)[C@H](CO)NC(=O)[C@H](Cc1c[nH]c2ccccc12)NC(=O)[C@H](Cc1c[nH]cn1)NC(=O)[C@@H]1CCC(=O)N1 [Leuprolide acetate salt]	> 50 µM
O=c1[nH]ncc2ccccc12 [1(2H)-Phthalazinone]	> 90 µM
CCOc1ccc2c(c1)C(C)CC(C)(C)N2 (stereo not shown)	> 90 µM
CC(C)(C)c1cc(O)c(C(C)(C)C)cc1O [2,5-Di-tert-butylbenzene-1,4-diol]	37.2 µM
C#CCC1=C(C)C(OC(=O)C2C(C=C(C)C)C2(C)C)CC1=O (stereo not shown) [Prallethrin]	66.6 µM
CC(C)CCCCCCOC(=O)c1ccccc1C(=O)OCCCCCCC(C)C [Diisononyl phthalate]	> 90 µM
CCOC(=O)c1ccc(OC(=O)CCCCCNC(=N)N)cc1 [Gabexate mesilate]	> 20 µM
O=C(O)c1cccc(C(=O)O)n1 [2,6-Pyridinedicarboxylic acid]	> 90 µM
O=C(CBr)c1ccc(O)cc1 [2-Bromo-4-hydroxyacetophenone]	> 90 µM
CC(C)OC(=O)c1cc(C(=O)OC(C)C)cc([N+](=O)[O-])c1 [Nitrothal-isopropyl]	> 90 µM

SMILES	CC50 at 24 h
O=C(O)CCSSCCC(=O)O [3,3'-Dithiodipropionic acid]	> 90 µM
NC[C@@H]1O[C@H](O[C@H]2[C@@H](O)[C@H](O[C@@H]3[C@@H](O)[C@H](N)C[C@H](N)[C@H]3O[C@H]3O[C@H](CN)[C@@H](O)[C@H](O)[C@H]3N)O[C@@H]2CO)[C@H](N)[C@@H](O)[C@@H]1O [Neomycin sulfate]	> 50 µM
CN1CCN2c3ccccc3Cc3ccccc3C2C1 (stereo not shown) [Mianserin]	20.6 µM
CCC(=O)c1ccc2c(c1)N(CCCN(C)C)c1ccccc1S2 [Propionylpromazine hydrochloride]	6.21 µM
CCCCCCC(=O)CCCCCC/C=C/C[C@@H](O)[C@H](O)[C@@](N)(CO)C(=O)O [Myriocin]	> 50 µM
CCCOc1ccccc1-c1nc2nn[nH]c2c(=O)[nH]1 [Zaprinast]	> 50 µM
Clc1ccccc1CN1CCc2sccc2C1 [Ticlopidine]	21.6 µM
O=C1O[C@H]([C@@H](O)CO)C(O)=C1O [L-Ascorbic acid]	> 90 µM
COc1cc(CC(C)N)c(OC)cc1Br (stereo not shown) [4-Bromo-2,5-dimethoxyamphetamine hydrochloride]	40.8 µM
COC(=O)c1ccc(C(=O)OC)c(C(=O)OC)c1 [Trimethyl benzene-1,2,4-tricarboxylate]	> 90 µM
Cc1cc(-n2nc3ccc(Cl)cc3n2)c(O)c(C(C)(C)C)c1 [Bumetrizole]	> 50 µM
O=C1CC[C@@H](C(=O)N2CSC[C@H]2C(=O)O)N1 [Pidotimod] ([pGlu]-[Thz]-OH)	> 50 µM
O=C(O)Cc1cn(-c2ccccc2)nc1-c1ccc(Cl)cc1 [Lonazolac]	> 50 µM
C=C(C)C(=O)OCCOc1ccccc1 [Ethylene glycol phenyl ether methacrylate]	> 90 µM
NC(=S)NC(N)=S [2,4-Dithiobiuret]	> 90 µM
CC1CC(CC2CCC(N)C(C)C2)CCC1N (stereo not shown) [Bis(4-amino-3-methylcyclohexyl)methane]	46.8 µM
CCCCCCOc1ccccc1C(N)=O [Exalamide]	> 50 µM
Cc1ccc(C=O)cc1C [3,4-Dimethylbenzaldehyde]	> 90 µM
O=C(O)CCCc1ccc(N(CCCl)CCCl)cc1 [Chlorambucil]	61 µM
CCC=O [Propanal]	> 90 µM
CCOCN(C(=O)CCl)c1c(C)cccc1CC [Acetochlor]	> 90 µM

Same assay, conditions: rat, gh3-tre-luc cells, AC50 (uM) modified / 1000, Tox21_110001=Tox21_110352; viability, 1 nM T3 present, 24 h

SMILES	CC50 at 24 h
CCC1(C)CC(=O)NC(=O)C1 [Bemegride]	> 20 µM

Same assay, conditions: rat, gh3-tre-luc cells, AC50 (uM) modified / 1000, Tox21_110001=Tox21_111183; viability, 1 nM T3 present, 24 h

SMILES	CC50 at 24 h
CN1C[C@H](C(=O)N[C@]2(C)O[C@@]3(O)[C@@H]4CCCN4C(=O)[C@H](Cc4ccccc4)N3C2=O)C=C2c3cccc4[nH]cc(c34)C[C@H]21 [Ergotamine D-tartrate]	> 50 µM

Same assay, conditions: rat, gh3-tre-luc cells, AC50 (uM) modified / 1000, Tox21_110001=Tox21_112855; viability, 1 nM T3 present, 24 h

SMILES	CC50 at 24 h
C[C@@H]1[C@H]2Cc3ccc(O)cc3[C@]1(C)CCN2C [(-)-Metazocine fumarate (1:1)]	> 200 µM

Same assay, conditions: rat, gh3-tre-luc cells, AC50 (uM) modified / 1000, Tox21_110001=Tox21_112882; viability, 1 nM T3 present, 24 h

SMILES	CC50 at 24 h
c1ccc(CN2CCNCC2)cc1 [1-Benzylpiperazine difumarate]	> 200 µM

Same assay, conditions: rat, gh3-tre-luc cells, AC50 (uM) modified / 1000, Tox21_110001=Tox21_200260; viability, 1 nM T3 present, 24 h

SMILES	CC50 at 24 h
Cc1ccc2cc(C)ccc2c1 [2,6-Dimethylnaphthalene]	> 90 µM

Same assay, conditions: rat, gh3-tre-luc cells, AC50 (uM) modified / 1000, Tox21_110001=Tox21_201194; viability, 1 nM T3 present, 24 h

SMILES	CC50 at 24 h
CNNC [1,2-Dimethylhydrazine dihydrochloride]	> 90 µM

Same assay, conditions: rat, gh3-tre-luc cells, AC50 (uM) modified / 1000, Tox21_110001=Tox21_201427; viability, 1 nM T3 present, 24 h

SMILES	CC50 at 24 h
BrCCBr [1,2-Dibromoethane]	> 90 µM

Same assay, conditions: rat, gh3-tre-luc cells, AC50 (uM) modified / 1000, Tox21_110001=Tox21_201705; viability, 1 nM T3 present, 24 h

SMILES	CC50 at 24 h
CN1C[C@H](C(=O)N[C@]2(C)O[C@@]3(O)[C@@H]4CCCN4C(=O)[C@H](Cc4ccccc4)N3C2=O)C=C2c3cccc4[nH]cc(c34)C[C@H]21 [Ergotamine D-tartrate]	> 90 µM

Same assay, conditions: rat, gh3-tre-luc cells, AC50 (uM) modified / 1000, Tox21_110001=Tox21_202464; viability, 1 nM T3 present, 24 h

SMILES	CC50 at 24 h
CC(=O)/C=C/c1ccc2c(c1)OCO2 [Piperonal acetone]	57.5 µM

Same assay, conditions: rat, gh3-tre-luc cells, AC50 (uM) modified / 1000, Tox21_110001=Tox21_301263; viability, 1 nM T3 present, 24 h

SMILES	CC50 at 24 h
CCCCN(CCCCO)N=O [Butyl-N-(4-hydroxybutyl)nitrosamine]	> 90 µM

Same assay, conditions: rat, gh3-tre-luc cells, AC50 (uM) modified / 1000, Tox21_110001=Tox21_303182; viability, 1 nM T3 present, 24 h

SMILES	CC50 at 24 h
CN1C[C@H](C(=O)N[C@]2(C)O[C@@]3(O)[C@@H]4CCCN4C(=O)[C@H](Cc4ccccc4)N3C2=O)C=C2c3cccc4[nH]cc(c34)C[C@H]21 [Ergotamine D-tartrate]	> 40 µM
